Data set [1] in a line: Prodrug conversion in African green monkey assessed as Nucleotide triphosphate metabolite formation in lung at 20 mg/kg, iv measured upto 24 hrs by LC-MS/MS analysis. It is filed as ADME, organism-based. The note with it: chlorocebus aethiops, in vivo.
Data set [2] can be described thus: AUC(0 to 24 hrs) in African green monkey at 5 mg/kg, po measured upto 24 hrs by LC-MS/MS analysis. It is filed as ADME, organism-based. On the set-up: time < 24 hrs, dose 5 mg/kg, route po. The conditions noted are these: chlorocebus sabaeus, in vivo.
A short description of data set [3]: AUC(0 to 24 hrs) in cynomolgus monkey at 5 mg/kg, po measured upto 24 hrs by LC-MS/MS analysis. The data set is classed as ADME, organism-based, Macaca fascicularis. Also on record: dose 5 mg/kg, time < 24 hrs, route po. The note with it: in vivo.
Data set [4] is described as follows: Oral bioavailability in dog assessed as prodrug conversion by measuring (2R,3R,4S,5R)-2-(4-aminopyrrolo[2,1-f][1,2,4]triazin-7-yl)-3,4-dihydroxy-5-(hydroxymethyl)tetrahydrofuran-2-carbonitrile at […] measured upto 24 hrs by LC-MS/MS analysis. The data set is classed as ADME, organism-based, Canis lupus familiaris. The conditions noted are these: in vivo.
Data set [5] can be described thus: AUC(0 to 24 hrs) in African green monkey at […], po measured upto 24 hrs by LC-MS/MS analysis. The data set is classed as ADME, organism-based. The note with it: chlorocebus sabaeus, in vivo.
The nature of data set [6]: Stability of compound in rat plasma assessed as half life measured upto 4 hrs by LC-MS/MS analysis. The data set is classed as ADME, cell-free.
The nature of data set [7]: Stability of compound in dog plasma assessed as half life measured upto 4 hrs by LC-MS/MS analysis. The data set is classed as ADME, cell-free, Canis lupus familiaris.
Data set [8] has as its system SARS-CoV-2. The data set can be described thus: Antiviral activity against SARS-CoV-2 infected in African green monkey assessed as reduction in genomic RNA load in BALF at 60 mg/kg, po qd administered for 1 day starting from 8 hrs post infection by RT-qPCR analysis. It is filed as functional, organism-based. The conditions noted are these: Severe acute respiratory syndrome coronavirus 2. (In qPCR the cycle at which signal appears reflects the starting amount.)

A short description of data set [9]: Stability of compound in cynomolgus monkey gastrointestinal S9 fraction assessed as half life at pH 7.4 measured upto 120 mins by LC-MS/MS analysis. The data set is classed as ADME, subcellular, Macaca fascicularis, Gastrointestinal tract.
Data set [10] can be described thus: Stability of compound in rat liver S9 fraction assessed as half life at pH 7.4 measured upto 90 mins by LC-MS/MS analysis. It is filed as ADME, subcellular.
The nature of data set [11]: AUC(0 to 24 hrs) in cynomolgus monkey at 11.7 mg/kg, po measured upto 24 hrs by LC-MS/MS analysis. The data set is classed as ADME, organism-based, Macaca fascicularis. On the set-up: dose 11.7 mg/kg, time < 24 hrs, route po. The note with it: in vivo.
Data set [12] relates to SARS-CoV-2. The data set can be described thus: Antiviral activity against SARS-CoV-2 infected in African green monkey assessed as reduction in viral genomic RNA load in nasal swabs at 60 to 120 mg/kg, po qd administered for 4 days starting from 8 hrs post infection by RT-qPCR analysis. The data set is classed as functional, organism-based. The conditions noted are these: Severe acute respiratory syndrome coronavirus 2, dose lower 60.0 mg/kg, dose upper […], time 4.0 day.

Data set [13] in a line: AUC(0 to 24 hrs) in African green monkey assessed as prodrug conversion by measuring (2R,3R,4S,5R)-2-(4-aminopyrrolo[2,1-f][1,2,4]triazin-7-yl)-3,4-dihydroxy-5-(hydroxymethyl)tetrahydrofuran-2-carbonitrile at 60 mg/kg, po measured upto 24 hrs by LC-MS/MS analysis. On the set-up: time < 24 hrs, dose 60 mg/kg, route po. The conditions noted are these: chlorocebus sabaeus, in vivo. The data set is classed as ADME, organism-based.

The nature of data set [14]: Stability of compound in human gastrointestinal S9 fraction assessed as half life at pH 7.4 measured upto 120 mins by LC-MS/MS analysis. The data set is classed as ADME, subcellular, Gastrointestinal tract.
A short description of data set [15]: Stability of compound in cynomolgus monkey liver S9 fraction assessed as half life at pH 7.4 measured upto 90 mins by LC-MS/MS analysis. The data set is classed as ADME, subcellular, Macaca fascicularis.
The subject of data set [16] is SARS-CoV-2. The data set can be described thus: Antiviral activity against SARS-CoV-2 infected in African green monkey assessed as reduction in viral titer in throat swabs at 60 to 120 mg/kg, po qd administered for 6 days starting from 8 hrs post infection by PFA assay. The data set is classed as functional, organism-based. The conditions noted are these: Severe acute respiratory syndrome coronavirus 2, dose lower 60.0 mg/kg, dose upper […], time 6.0 day.

Data set [17] in a line: Cmax in African green monkey assessed as prodrug conversion by measuring (2R,3R,4S,5R)-2-(4-aminopyrrolo[2,1-f][1,2,4]triazin-7-yl)-3,4-dihydroxy-5-(hydroxymethyl)tetrahydrofuran-2-carbonitrile at 60 mg/kg, po measured upto 24 hrs by LC-MS/MS analysis. The note with it: chlorocebus sabaeus, in vivo. On the set-up: dose 60 mg/kg, time < 24 hrs, route po. The data set is classed as ADME, organism-based.

In data set [18] the test system is SARS-CoV-2. The data set can be described thus: Antiviral activity against SARS-CoV-2 infected in African green monkey assessed as reduction in genomic RNA load in BALF at 60 to 120 mg/kg, po qd administered for 6 days starting from 8 hrs post infection by RT-qPCR analysis. The data set is classed as functional, organism-based. The conditions noted are these: Severe acute respiratory syndrome coronavirus 2, dose lower 60.0 mg/kg, dose upper […], time 6.0 day.

Data set [19] is described as follows: Half life in African green monkey assessed as prodrug conversion by measuring (2R,3R,4S,5R)-2-(4-aminopyrrolo[2,1-f][1,2,4]triazin-7-yl)-3,4-dihydroxy-5-(hydroxymethyl)tetrahydrofuran-2-carbonitrile at […], po measured upto 24 hrs by LC-MS/MS analysis. The conditions noted are these: chlorocebus sabaeus, in vivo. The data set is classed as ADME, organism-based.

Data set [20] is described as follows: AUC(0 to 24 hrs) in African green monkey at 86.5 mg/kg, po measured upto 24 hrs by LC-MS/MS analysis. The data set is classed as ADME, organism-based. Also on record: dose 86.5 mg/kg, time < 24 hrs, route po. The note with it: chlorocebus sabaeus, in vivo.
The nature of data set [21]: Prodrug conversion in SARS-CoV-2 infected in African green monkey assessed as (2R,3R,4S,5R)-2-(4-aminopyrrolo[2,1-f][1,2,4]triazin-7-yl)-3,4-dihydroxy-5-(hydroxymethyl)tetrahydrofuran-2-carbonitrile mediated log10 reduction of genomic RNA at 60 mg/kg, po qd measured after 6 days by RT-qPCR analysis. It is filed as ADME, organism-based, Severe acute respiratory syndrome coronavirus 2. The note with it: in vivo, time 6 day.

Data set [22] in a line: Oral bioavailability in rat assessed as prodrug conversion by measuring (2R,3R,4S,5R)-2-(4-aminopyrrolo[2,1-f][1,2,4]triazin-7-yl)-3,4-dihydroxy-5-(hydroxymethyl)tetrahydrofuran-2-carbonitrile at 6 mg/kg administered in solid form measured upto 24 hrs by LC-MS/MS analysis. The data set is classed as ADME, organism-based. The conditions noted are these: in vivo.
Data set [23] concerns the target T1, CES2 (cocaine esterase) (Homo sapiens, UniProt O00748).
T1 sequence (O00748 whole entry): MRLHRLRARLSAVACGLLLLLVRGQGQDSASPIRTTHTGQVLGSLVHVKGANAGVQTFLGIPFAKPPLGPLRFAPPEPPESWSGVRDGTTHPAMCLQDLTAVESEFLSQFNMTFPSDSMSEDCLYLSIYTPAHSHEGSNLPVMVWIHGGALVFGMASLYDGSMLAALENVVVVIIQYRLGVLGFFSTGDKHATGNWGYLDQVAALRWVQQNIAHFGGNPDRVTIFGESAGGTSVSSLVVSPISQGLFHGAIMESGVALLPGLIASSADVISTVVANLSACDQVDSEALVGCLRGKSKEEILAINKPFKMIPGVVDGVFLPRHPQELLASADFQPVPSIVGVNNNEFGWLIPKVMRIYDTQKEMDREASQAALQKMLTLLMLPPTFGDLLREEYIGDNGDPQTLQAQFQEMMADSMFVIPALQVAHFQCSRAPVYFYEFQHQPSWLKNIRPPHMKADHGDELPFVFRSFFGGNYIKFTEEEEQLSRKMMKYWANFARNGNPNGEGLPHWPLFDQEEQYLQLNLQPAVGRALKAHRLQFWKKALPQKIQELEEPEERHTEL
The experiment in a line: Stability of compound assessed as human recombinant CES2-mediated compound hydrolysis by measuring half life at pH 7.4 using oseltamivir as substrate measured upto 120 mins by LC-MS/MS analysis. The data set is classed as ADME. The note with it: recombinant CES2, pH 7.4, probe oseltamivir.

Data set [24] can be described thus: Stability of compound in dog gastrointestinal S9 fraction assessed as half life at pH 7.4 measured upto 120 mins by LC-MS/MS analysis. It is filed as ADME, subcellular, Canis lupus familiaris, Gastrointestinal tract.
A short description of data set [25]: Stability of compound in rat gastrointestinal S9 fraction assessed as half life at pH 7.4 measured upto 120 mins by LC-MS/MS analysis. It is filed as ADME, subcellular, Gastrointestinal tract.

Active and inactive are the calls of the source. The rule behind the calls is not given here. Where only a bound is given, the exact number is not on record here.

With `N#C[C@@]1(c2ccc3c(N)ncnn23)O[C@H](CO)[C@@H](O)[C@H]1O` [GS-441524], the Drug metabolism in [1] was 0.23 nmol/g. Moreover, the area under the curve (AUC) (as a rule, the area under the concentration-time curve, a measure of exposure) in data set [2] stood at 3.15 µM·h; in data set [3] it was 1.67 µM·h.
Turning to `CC(C)C(=O)OC[C@H]1O[C@@](C#N)(c2ccc3c(N)ncnn23)[C@H](O)[C@@H]1O` [OBELDESIVIR], the F in data set [4] turned out to be 93%; in [22], 90%. Also, the AUC in data set [5] amounted to 0.02 µM·h; in [11], 0.01 µM·h; in [13] it was 129 µM·h; in data set [20], 0.68 µM·h. Besides, the half-life (as a rule, the time in which the quantity being followed falls by half) in data set [6] is under 3 min; in [7], 412 min; in data set [9] it was under 2 min; in data set [14], under 2 min; in data set [23], under 2 min; in data set [24] it was under 2 min. The half-life in [25] was over 2 min. In addition, the result in data set [8] was inactive. Moreover, the half-life at […] in data set [10] and in [15] was under 2 min each time. In addition, the result in data set [12], in data set [16] and in [18] was Active. Besides, the Cmax (as a rule, the highest concentration seen after dosing) in data set [17] was 22.5 µM. In [19], the t1/2 was determined as 3.19 h. Moreover, the “log(activity)” value in data set [21] was -1.41.

Source of the values: ChEMBL document CHEMBL5321279 (J Med Chem, 2023).
